Source: patent US5668152A, “Protein kinase C inhibitors” (priority 1995, dated 1997)

Tests used:
protein kinase C zeta = target: T1, protein kinase C zeta (Homo sapiens, UniProt Q05513); assay: PKC Enzyme assay, zeta isozyme; assay type: biochemical; conditions: PKC zeta; 30 μM ATP, 30° C., 10 minutes; read-out: IC50 ζ
T1 sequence (Q05513 1-592): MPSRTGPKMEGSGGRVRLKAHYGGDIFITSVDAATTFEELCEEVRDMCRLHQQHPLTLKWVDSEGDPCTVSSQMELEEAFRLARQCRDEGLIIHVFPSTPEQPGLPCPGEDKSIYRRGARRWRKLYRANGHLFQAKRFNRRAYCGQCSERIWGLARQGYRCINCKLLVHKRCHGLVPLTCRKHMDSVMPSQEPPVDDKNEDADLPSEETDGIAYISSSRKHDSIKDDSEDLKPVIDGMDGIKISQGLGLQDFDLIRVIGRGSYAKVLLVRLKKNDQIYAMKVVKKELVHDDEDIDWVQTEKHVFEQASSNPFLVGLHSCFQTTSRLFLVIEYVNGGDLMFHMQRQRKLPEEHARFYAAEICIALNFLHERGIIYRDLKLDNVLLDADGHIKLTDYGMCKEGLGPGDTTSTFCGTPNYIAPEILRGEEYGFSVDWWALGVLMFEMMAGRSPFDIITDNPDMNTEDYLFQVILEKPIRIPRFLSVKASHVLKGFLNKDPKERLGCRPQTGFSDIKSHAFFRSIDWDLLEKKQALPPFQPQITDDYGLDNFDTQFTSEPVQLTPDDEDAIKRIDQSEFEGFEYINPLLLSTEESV
Procedure: (§1) PKC enzymes=alpha, beta I, beta II, gamma, delta, epsilon, eta and zeta.
(§2) Assay components in a total volume of 250 μL are the following:
(§3) Vesicles consisting of 120 μg/mL phosphatidylserine (Avanti Polar Lipids) and sufficient diacylglycerol (Avanti Polar Lipids) to activate the enzyme to maximum activity in 20 mM HEPES buffer (Sigma, St. Louis, Mo.), pH 7.5, 940 μM calcium chloride (Sigma, St. Louis, Mo.) for assaying the alpha, beta I, beta II and gamma enzyme only, 1 mM EGTA for all the enzymes, 10 mM magnesium chloride (Sigma, St. Louis, Mo.) and 30 μM (gamma-32P) ATP (DuPont). For all the enzymes either histone type HL (Worthington) or myelin basic protein is used as substrate. The assay is started by addition of protein kinase C enzyme incubated at 30° C. for 10 minutes and stopped by adding 0.5 mL of cold trichloroacetic acid (Amresco) followed by 100 μL of 1 mg/mL bovine serum albumin (Sigma, St. Louis, Mo.). The precipitate is collected by vacuum filtration on glass fiber filters employing a TOMTEC™ filtration system and quantified by counting in a beta scintillation counter.

protein kinase C delta = protein kinase C delta (Homo sapiens, UniProt Q05655); assay: biochemical; conditions: PKC delta; 30 μM ATP, 30° C., 10 minutes; read-out: IC50 δ
Procedure: as §1, §2, §3

protein kinase C epsilon = target: T2, protein kinase C epsilon (Homo sapiens, UniProt Q02156); assay: PKC Enzyme assay, epsilon isozyme; assay type: biochemical; conditions: PKC epsilon; 30 μM ATP, 30° C., 10 minutes; read-out: IC50 ε
T2 sequence (Q02156 1-737): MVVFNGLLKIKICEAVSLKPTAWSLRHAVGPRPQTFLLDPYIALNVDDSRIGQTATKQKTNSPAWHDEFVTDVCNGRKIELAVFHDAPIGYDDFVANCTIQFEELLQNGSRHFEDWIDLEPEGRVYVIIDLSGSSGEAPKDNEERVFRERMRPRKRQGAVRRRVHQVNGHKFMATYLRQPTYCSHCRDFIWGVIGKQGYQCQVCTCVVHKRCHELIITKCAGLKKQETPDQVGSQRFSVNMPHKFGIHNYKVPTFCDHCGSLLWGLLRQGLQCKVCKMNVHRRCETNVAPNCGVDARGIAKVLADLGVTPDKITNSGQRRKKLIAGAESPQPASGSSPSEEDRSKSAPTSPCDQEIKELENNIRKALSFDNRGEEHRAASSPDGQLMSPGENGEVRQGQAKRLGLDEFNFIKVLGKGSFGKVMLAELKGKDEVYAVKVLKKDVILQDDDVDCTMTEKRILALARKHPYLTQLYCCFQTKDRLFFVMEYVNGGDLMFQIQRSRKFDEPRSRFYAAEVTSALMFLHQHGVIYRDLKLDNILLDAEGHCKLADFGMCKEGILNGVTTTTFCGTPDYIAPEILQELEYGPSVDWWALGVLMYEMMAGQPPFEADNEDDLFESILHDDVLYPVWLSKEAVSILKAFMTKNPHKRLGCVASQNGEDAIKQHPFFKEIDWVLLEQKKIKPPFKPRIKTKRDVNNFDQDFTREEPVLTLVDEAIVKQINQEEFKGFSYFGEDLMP
Procedure: as §1, §2, §3

protein kinase C beta-2 = protein kinase C beta-2 (Homo sapiens, UniProt P05771); assay: PKC Enzyme assay, beta II isozyme; assay type: biochemical; conditions: PKC beta-2; 30 μM ATP, 30° C., 10 minutes; read-out: IC50 β2
Procedure: as §1, §2, §3

protein kinase C beta-1 = protein kinase C beta-1 (Homo sapiens, UniProt P05771); assay: PKC Enzyme assay, beta I isozyme; assay type: biochemical; conditions: PKC beta-1; 30 μM ATP, 30° C., 10 minutes; read-out: IC50 β1
Procedure: as §1, §2, §3

protein kinase C gamma = protein kinase C gamma (Homo sapiens, UniProt P05129); assay: PKC Enzyme assay, gamma isozyme; assay type: biochemical; conditions: PKC gamma; 30 μM ATP, 30° C., 10 minutes; read-out: IC50 γ
Procedure: as §1, §2, §3

protein kinase C eta = protein kinase C eta (Homo sapiens, UniProt P24723); assay: PKC Enzyme assay, eta isozyme; assay type: biochemical; conditions: PKC eta; 30 μM ATP, 30° C., 10 minutes; read-out: IC50 η
Procedure: as §1, §2, §3

protein kinase C alpha = protein kinase C alpha (Homo sapiens, UniProt P17252); assay: PKC Enzyme assay, alpha isozyme; assay type: biochemical; conditions: PKC alpha; 30 μM ATP, 30° C., 10 minutes; read-out: IC50 α
Procedure: as §1, §2, §3

Sequence of protein kinase C beta-1 (P05771 whole entry): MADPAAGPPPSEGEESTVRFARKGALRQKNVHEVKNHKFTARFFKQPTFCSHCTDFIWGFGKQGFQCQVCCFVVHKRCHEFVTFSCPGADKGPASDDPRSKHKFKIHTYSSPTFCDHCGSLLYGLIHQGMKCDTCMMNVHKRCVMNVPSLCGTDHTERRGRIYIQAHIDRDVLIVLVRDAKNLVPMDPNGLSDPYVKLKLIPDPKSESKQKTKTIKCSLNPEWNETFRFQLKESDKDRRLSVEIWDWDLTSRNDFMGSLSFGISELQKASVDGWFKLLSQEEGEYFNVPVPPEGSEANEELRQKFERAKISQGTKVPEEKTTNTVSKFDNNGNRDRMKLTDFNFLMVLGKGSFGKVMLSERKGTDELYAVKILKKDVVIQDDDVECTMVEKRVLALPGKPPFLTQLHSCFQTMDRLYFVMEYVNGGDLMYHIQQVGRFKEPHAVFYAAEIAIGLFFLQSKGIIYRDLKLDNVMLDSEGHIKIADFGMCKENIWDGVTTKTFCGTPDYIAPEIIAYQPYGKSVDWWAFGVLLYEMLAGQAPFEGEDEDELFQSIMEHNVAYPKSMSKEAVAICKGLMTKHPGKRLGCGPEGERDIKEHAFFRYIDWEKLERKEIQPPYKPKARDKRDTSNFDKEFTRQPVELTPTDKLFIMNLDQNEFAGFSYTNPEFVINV
Sequence of protein kinase C beta-2 (P05771 1-673 isoform P05771-2): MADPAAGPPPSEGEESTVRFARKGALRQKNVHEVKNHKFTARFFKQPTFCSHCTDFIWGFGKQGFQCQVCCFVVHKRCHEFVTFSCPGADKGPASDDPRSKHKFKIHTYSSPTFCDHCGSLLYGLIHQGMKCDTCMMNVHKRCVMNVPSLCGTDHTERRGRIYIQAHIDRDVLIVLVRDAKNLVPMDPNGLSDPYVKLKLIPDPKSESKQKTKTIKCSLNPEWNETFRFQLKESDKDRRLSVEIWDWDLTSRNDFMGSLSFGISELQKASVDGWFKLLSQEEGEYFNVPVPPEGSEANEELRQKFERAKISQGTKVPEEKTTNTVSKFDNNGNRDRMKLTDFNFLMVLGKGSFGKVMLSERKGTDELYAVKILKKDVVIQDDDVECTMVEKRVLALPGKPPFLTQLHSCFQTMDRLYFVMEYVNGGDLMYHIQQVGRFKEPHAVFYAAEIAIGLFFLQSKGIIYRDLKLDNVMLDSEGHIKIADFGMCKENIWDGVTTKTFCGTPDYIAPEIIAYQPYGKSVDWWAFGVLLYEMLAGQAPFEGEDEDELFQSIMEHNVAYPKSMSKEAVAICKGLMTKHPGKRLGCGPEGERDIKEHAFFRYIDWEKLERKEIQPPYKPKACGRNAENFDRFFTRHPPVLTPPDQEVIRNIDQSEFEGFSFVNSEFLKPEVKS
Sequence of protein kinase C eta (P24723 whole entry): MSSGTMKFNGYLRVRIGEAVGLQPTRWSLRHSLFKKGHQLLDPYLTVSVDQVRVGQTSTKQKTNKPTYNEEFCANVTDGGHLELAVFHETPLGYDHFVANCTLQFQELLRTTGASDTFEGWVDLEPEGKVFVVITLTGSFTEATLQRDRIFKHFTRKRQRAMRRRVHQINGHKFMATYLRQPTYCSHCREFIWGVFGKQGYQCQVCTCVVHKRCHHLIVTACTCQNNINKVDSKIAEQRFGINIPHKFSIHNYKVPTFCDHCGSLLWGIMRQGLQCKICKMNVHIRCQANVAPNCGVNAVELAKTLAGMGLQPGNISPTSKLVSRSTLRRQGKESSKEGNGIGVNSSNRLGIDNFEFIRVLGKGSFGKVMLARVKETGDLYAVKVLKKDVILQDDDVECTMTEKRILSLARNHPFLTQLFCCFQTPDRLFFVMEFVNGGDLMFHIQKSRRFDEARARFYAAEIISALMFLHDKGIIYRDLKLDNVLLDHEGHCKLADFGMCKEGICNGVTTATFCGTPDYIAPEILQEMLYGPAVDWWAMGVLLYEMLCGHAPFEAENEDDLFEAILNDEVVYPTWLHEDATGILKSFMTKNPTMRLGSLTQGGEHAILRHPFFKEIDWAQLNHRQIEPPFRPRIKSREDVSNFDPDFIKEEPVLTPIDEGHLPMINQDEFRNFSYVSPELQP
Sequence of protein kinase C delta (Q05655 whole entry): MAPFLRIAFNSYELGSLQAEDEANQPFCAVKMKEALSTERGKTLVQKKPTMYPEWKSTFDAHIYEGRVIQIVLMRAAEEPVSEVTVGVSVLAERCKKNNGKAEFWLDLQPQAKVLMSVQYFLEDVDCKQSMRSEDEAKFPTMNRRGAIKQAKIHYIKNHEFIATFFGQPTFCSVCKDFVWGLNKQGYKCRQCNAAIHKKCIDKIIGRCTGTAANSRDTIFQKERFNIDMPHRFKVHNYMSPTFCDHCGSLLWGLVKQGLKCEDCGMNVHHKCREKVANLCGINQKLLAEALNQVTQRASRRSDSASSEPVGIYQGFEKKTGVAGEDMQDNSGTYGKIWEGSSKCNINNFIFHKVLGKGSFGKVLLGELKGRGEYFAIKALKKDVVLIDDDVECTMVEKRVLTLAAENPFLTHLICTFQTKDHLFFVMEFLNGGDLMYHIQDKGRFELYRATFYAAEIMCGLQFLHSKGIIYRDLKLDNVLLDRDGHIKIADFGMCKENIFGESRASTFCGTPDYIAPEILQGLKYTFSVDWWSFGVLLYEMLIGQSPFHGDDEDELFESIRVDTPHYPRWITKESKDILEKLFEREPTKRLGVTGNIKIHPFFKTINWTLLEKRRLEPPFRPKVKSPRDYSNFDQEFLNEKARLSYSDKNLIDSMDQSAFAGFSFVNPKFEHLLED

Row | IC50 (protein kinase C zeta) [nM] | IC50 (protein kinase C delta) [nM] | IC50 (protein kinase C epsilon) [nM] | IC50 (protein kinase C beta-2) [nM] | IC50 (protein kinase C beta-1) [nM] | IC50 (protein kinase C gamma) [nM] | IC50 (protein kinase C eta) [nM] | IC50 (protein kinase C alpha) [nM] | Compound
1 | 16000 | 410 | 680 | 46 | 39 | 1100 | 100 | 450 | O=C1NC(=O)C(c2cn(CCCO)c3ccccc23)=C1c1c[nH]c2ccccc12 [Example 11]
2 | 8000 | 1000 | 900 | 86 | 81 | 1250 | 520 | 1210 | Cn1cc(C2=C(c3c[nH]c4ccccc34)C(=O)NC2=O)c2ccccc21 [Example 12]
3 | 34000 | 8800 | 30000 | 1140 | 1150 | 25000 | 4500 | 13500 | O=C1NC(=O)C(c2cn(Cc3ccccc3)c3ccccc23)=C1c1c[nH]c2ccccc12 [Example 14]
4 | 37000 | 3400 | 5500 | 100 | 140 | 4000 | 1300 | 4900 | Cc1c(C2=C(c3cn(CN(C)C)c4ccccc34)C(=O)NC2=O)c2ccccc2n1CCCN(C)C [Example 15]
5 | 40000 | 8000 | 10000 | 600 | 700 | 9200 | 5600 | 39000 | Cc1c(C2=C(c3c(C)n(CN(C)C)c4ccccc34)C(=O)NC2=O)c2ccccc2n1CCCN(C)C [Example 16]
6 | 20000 | 400 | 400 | 20 | 9 | 1000 | 100 | 300 | CC(=O)N1CCC(n2cc(C3=C(c4cn(C)c5ccccc45)C(=O)NC3=O)c3ccccc32)CC1 [Example 37, 3-(1-(1-Acetyl-piperidin-4-yl]-indol-3-yl)-4-(1-methyl-indol-3-yl)-pyrrole-2,5-dione]
7 | > 100000 | 3000 | 400 | 50 | 50 | 5000 | 2000 | 1000 | CCOC(=O)CN1CCC(n2cc(C3=C(c4cn(C)c5ccccc45)C(=O)NC3=O)c3ccccc32)CC1 [Example 38]
8 | 15000 | 4000 | 1000 | 100 | 200 | 4000 | 2000 | 3000 | CN(C)CCCN1CCC(n2cc(C3=C(c4cn(C)c5ccccc45)C(=O)NC3=O)c3ccccc32)CC1 [Example 41, 3-{1-[1-N-(3-N,N-(Dimethylamino)propyl)-piperidin-4-yl]-indol-3-yl}-4-(1-methyl-indol-3-yl)-1H-pyrrole-2,5-dione]
9 | 4000 | 400 | 400 | 10 | 20 | 500 | 50 | 400 | CN1CCC(n2cc(C3=C(c4cn(C)c5ccccc45)C(=O)NC3=O)c3ccccc32)CC1 [Example 42, 3-[1-(1-Methyl-piperidin-4-yl)-indol-3-yl]-4-(1-methyl-indol-3-yl)-1H-pyrrole-2,5-dione]
10 | 4800 | 100 | 360 | 5 | 5 | 82 | 5 | 42 | Cn1cc(C2=C(c3cn(C4CCN(C(=N)N)CC4)c4ccccc34)C(=O)NC2=O)c2ccccc21 [Example 44, 3-[1-(1-carboxamidine-piperidin-4-yl)-indol-3-yl)-4-(1-methyl-indol-3-yl)-1-pyrrole-2,5-dione]

Row | Compound | IC50 (protein kinase C zeta) [nM] | IC50 (protein kinase C delta) [nM] | IC50 (protein kinase C epsilon) [nM] | IC50 (protein kinase C beta-2) [nM] | IC50 (protein kinase C beta-1) [nM] | IC50 (protein kinase C gamma) [nM] | IC50 (protein kinase C eta) [nM] | IC50 (protein kinase C alpha) [nM]
11 | Cn1cc(C2=C(c3cn(C4CCN(CC5CC5)CC4)c4ccccc34)C(=O)NC2=O)c2ccccc21 [Example 39, 3-[1-N-(1-N-(Cyclopropylmethylene)-piperidin-4-yl)-indol-3-yl]-4-(1-N-(methyl)-indol-3-yl)-1H-pyrrole-2,5-dione] | 9000 | 400 | 900 | 10 | 30 | 400 | 50 | 300
